# Data: ChEMBL document CHEMBL1201861, “Genomics of Drug Sensitity in Cancer screening data, Wellcome Trust Sanger Institute”
# pIC50: −log10 of the molar value.
# Legend:
# Experiment in all cases: cells
# [1] = tested on: KP-N-YN; type: functional, cell-based; conditions: Homo sapiens;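 note: growth inhibition of KP-N-YN cells, read out with a cell viability assay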
# Description: SANGER: Inhibition of human KP-N-YN cell growth in a cell viability assay.
# [2] = tested on: HDLM-2; type: functional, cell-based; conditions: Homo sapiens;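 note: cell viability assay measuring suppression of HDLM-2 proliferation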
# Description: SANGER: Inhibition of human HDLM-2 cell growth in a cell viability assay.
# [3] = tested on: LU-139; type: functional, cell-based; conditions: Homo sapiens
# Description: SANGER: Inhibition of human LU-139 cell growth in a cell viability assay.
# [4] = tested on: BV-173; type: functional, cell-based; conditions: Homo sapiens
# Description: SANGER: Inhibition of human BV-173 cell growth in a cell viability assay.
# [5] = tested on: SCH; type: functional, cell-based, Homo sapiens; conditions: Homo sapiens, SCH;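 note: growth inhibition of human SCH cells, read out in a cell viability assay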
# Description: SANGER: Inhibition of human SCH cell growth in a cell viability assay.
# [6] = tested on: NB7; type: functional, cell-based; conditions: Homo sapiens;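 note: growth inhibition of NB7 cells, read out with a cell viability assay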
# Description: SANGER: Inhibition of human NB7 cell growth in a cell viability assay.
# [7] = tested on: NH-12; type: functional, cell-based, Homo sapiens; conditions: Homo sapiens, NH-12;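 note: growth inhibition of NH-12 cells, read out with a cell viability assay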
# Description: SANGER: Inhibition of human NH-12 cell growth in a cell viability assay.
# [8] = tested on: NEC8; type: functional, cell-based, Homo sapiens; conditions: Homo sapiens, NEC8;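 note: growth inhibition of human NEC8 cells, read out by a cell viability assay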
# Description: SANGER: Inhibition of human NEC8 cell growth in a cell viability assay.
# [9] = tested on: TE-5; type: functional, cell-based, Homo sapiens; conditions: Homo sapiens, TE-5;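 note: inhibition of cell growth, read out by a cell viability assay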
# Description: SANGER: Inhibition of human TE-5 cell growth in a cell viability assay.
# [10] = tested on: HAL-01; type: functional, cell-based; conditions: Homo sapiens;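 note: growth inhibition of human HAL-01 cells, read out with a cell viability assay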
# Description: SANGER: Inhibition of human HAL-01 cell growth in a cell viability assay.
# [11] = tested on: CAL-54; type: functional, cell-based, Homo sapiens; conditions: Homo sapiens, CAL-54;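 note: growth inhibition of CAL-54 cells, read out by a viability measurement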
# Description: SANGER: Inhibition of human CAL-54 cell growth in a cell viability assay.
# [12] = tested on: PA-1; type: functional, cell-based, Homo sapiens; conditions: Homo sapiens, PA-1;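 note: IC50 for suppression of PA-1 cell proliferation, determined with a cell viability read-out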
# Description: SANGER: Inhibition of human PA-1 cell growth in a cell viability assay.
# [13] = tested on: SK-HEP1; type: functional, cell-based, Homo sapiens, SK-HEP-1; conditions: Homo sapiens, SK-HEP1;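 note: cell viability readout used to quantify reduction in proliferation of human SK-HEP-1 cells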
# Description: SANGER: Inhibition of human SK-HEP-1 cell growth in a cell viability assay.
# [14] = tested on: MC-IXC; type: functional, cell-based, Homo sapiens; conditions: Homo sapiens, MC-IXC;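 note: growth inhibition of MC-IXC cells, read out with a cell viability assay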
# Description: SANGER: Inhibition of human MC-IXC cell growth in a cell viability assay.
# [15] = tested on: PSN1; type: functional, cell-based, Homo sapiens; conditions: Homo sapiens, PSN1;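 note: suppression of growth of human PSN1 cells, read out by a cell viability assay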
# Description: SANGER: Inhibition of human PSN1 cell growth in a cell viability assay.
# [16] = tested on: CAPAN-1; type: functional, cell-based, Homo sapiens; conditions: Homo sapiens, CAPAN-1;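 note: growth suppression of CAPAN-1 cells, read out by a cell viability assay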
# Description: SANGER: Inhibition of human CAPAN-1 cell growth in a cell viability assay.
# [17] = tested on: SK-OV-3; type: functional, cell-based, Homo sapiens; conditions: Homo sapiens, SK-OV-3;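 note: growth inhibition of SK-OV-3 human cells, read out with a cell viability assay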
# Description: SANGER: Inhibition of human SK-OV-3 cell growth in a cell viability assay.
# [18] = tested on: CAL-39; type: functional, cell-based, Homo sapiens; conditions: Homo sapiens, CAL-39;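 note: cell viability assay measuring growth inhibition of CAL-39 cells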
# Description: SANGER: Inhibition of human CAL-39 cell growth in a cell viability assay.
# [19] = tested on: M059J; type: functional, cell-based, Homo sapiens; conditions: Homo sapiens, M059J;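 note: growth inhibition of M059J cells, read out with a cell viability assay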
# Description: SANGER: Inhibition of human M059J cell growth in a cell viability assay.
# [20] = tested on: EFO-27; type: functional, cell-based, Homo sapiens; conditions: Homo sapiens, EFO-27;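 note: growth inhibition of EFO-27 cells, read out with a cell viability assay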
# Description: SANGER: Inhibition of human EFO-27 cell growth in a cell viability assay.
# [21] = tested on: NCI-H1563; type: functional, cell-based, Homo sapiens; conditions: Homo sapiens, NCI-H1563;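 note: growth inhibition of human NCI-H1563 cells, read out with a cell viability assay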
# Description: SANGER: Inhibition of human NCI-H1563 cell growth in a cell viability assay.
# [22] = tested on: KNS-81-FD; type: functional, cell-based, Homo sapiens; conditions: Homo sapiens, KNS-81-FD;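 note: growth inhibition of KNS-81-FD cells, read out with a cell viability assay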
# Description: SANGER: Inhibition of human KNS-81-FD cell growth in a cell viability assay.
# [23] = tested on: MeWo; type: functional, cell-based, Homo sapiens; conditions: Homo sapiens, MeWo;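 note: growth inhibition of MeWo cells, determined by a cell viability readout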
# Description: SANGER: Inhibition of human Mewo cell growth in a cell viability assay.
# [24] = tested on: OE33; type: functional, cell-based, Homo sapiens; conditions: Homo sapiens, OE33;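 note: growth inhibition of human OE33 cells, measured by a cell viability assay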
# Description: SANGER: Inhibition of human OE33 cell growth in a cell viability assay.
# [25] = tested on: TE-12; type: functional, cell-based; conditions: Homo sapiens;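 note: growth inhibition of TE-12 cells, read out by a cell viability assay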
# Description: SANGER: Inhibition of human TE-12 cell growth in a cell viability assay.
# [26] = tested on: COLO-741; type: functional, cell-based, Homo sapiens; conditions: Homo sapiens, COLO-741
# Description: SANGER: Inhibition of human COLO-741 cell growth in a cell viability assay.
# [27] = tested on: OS-RC-2; type: functional, cell-based, Homo sapiens; conditions: Homo sapiens, OS-RC-2;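 note: growth inhibition of human OS-RC-2 cells, measured by a cell viability assay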
# Description: SANGER: Inhibition of human OS-RC-2 cell growth in a cell viability assay.
# [28] = tested on: RVH-421; type: functional, cell-based, Homo sapiens; conditions: Homo sapiens, RVH-421
# Description: SANGER: Inhibition of human RVH-421 cell growth in a cell viability assay.
# [29] = tested on: LC-2-ad; type: functional, cell-based, Homo sapiens; conditions: Homo sapiens, LC-2-ad;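 note: growth inhibition of human LC-2-ad cells, read out with a cell viability assay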
# Description: SANGER: Inhibition of human LC-2-ad cell growth in a cell viability assay.
# [30] = tested on: KU-19-19; type: functional, cell-based, Homo sapiens; conditions: Homo sapiens, KU-19-19
# Description: SANGER: Inhibition of human KU-19-19 cell growth in a cell viability assay.
# [31] = tested on: LK-2; type: functional, cell-based, Homo sapiens; conditions: Homo sapiens, LK-2;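 note: growth inhibition of LK-2 cells, read out with a viability assay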
# Description: SANGER: Inhibition of human LK-2 cell growth in a cell viability assay.
# [32] = tested on: COLO-800; type: functional, cell-based, Homo sapiens; conditions: Homo sapiens, COLO-800;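 note: growth inhibition of COLO-800 cells, read out with a cell viability assay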
# Description: SANGER: Inhibition of human COLO-800 cell growth in a cell viability assay.
# [33] = tested on: GP5d; type: functional, cell-based, Homo sapiens; conditions: Homo sapiens, GP5d;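 note: growth inhibition of human GP5d cells, read out with a cell viability assay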
# Description: SANGER: Inhibition of human GP5d cell growth in a cell viability assay.
# [34] = tested on: KYSE-140; type: functional, cell-based, Homo sapiens; conditions: Homo sapiens, KYSE-140;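 note: cell viability assay measuring growth inhibition in human KYSE-140 cells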
# Description: SANGER: Inhibition of human KYSE-140 cell growth in a cell viability assay.
# [35] = tested on: NB12; type: functional, cell-based, Homo sapiens; conditions: Homo sapiens, NB12;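 note: growth inhibition of human NB12 cells, read out by a cell viability assay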
# Description: SANGER: Inhibition of human NB12 cell growth in a cell viability assay.
# [36] = tested on: CAL-33; type: functional, cell-based, Homo sapiens; conditions: Homo sapiens, CAL-33;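 note: growth inhibition of CAL-33 cells, read out with a cell viability assay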
# Description: SANGER: Inhibition of human CAL-33 cell growth in a cell viability assay.
# [37] = tested on: HT-1080; type: functional, cell-based, Homo sapiens; conditions: Homo sapiens, HT-1080
# Description: SANGER: Inhibition of human HT-1080 cell growth in a cell viability assay.
# [38] = tested on: CP66-MEL; type: functional, cell-based, Homo sapiens; conditions: Homo sapiens, CP66-MEL;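 note: growth inhibition of CP66-MEL cells determined in a cell viability assay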
# Description: SANGER: Inhibition of human CP66-MEL cell growth in a cell viability assay.
# [39] = tested on: OVCAR-5; type: functional, cell-based, Homo sapiens; conditions: Homo sapiens, OVCAR-5;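 note: growth inhibition of human OVCAR-5 cells, read out with a cell viability assay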
# Description: SANGER: Inhibition of human OVCAR-5 cell growth in a cell viability assay.
# [40] = tested on: DU-4475; type: functional, cell-based; conditions: Homo sapiens
# Description: SANGER: Inhibition of human DU-4475 cell growth in a cell viability assay.
# [41] = tested on: DBTRG-05MG; type: functional, cell-based, Homo sapiens; conditions: Homo sapiens, DBTRG-05MG;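 note: cell viability assay measuring growth inhibition of human DBTRG-05MG cells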
# Description: SANGER: Inhibition of human DBTRG-05MG cell growth in a cell viability assay.
# [42] = tested on: ACN; type: functional, cell-based, Homo sapiens; conditions: Homo sapiens, ACN;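 note: growth inhibition of the human ACN cell line, read out via cell viability testing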
# Description: SANGER: Inhibition of human ACN cell growth in a cell viability assay.
# [43] = tested on: GB-1; type: functional, cell-based, Homo sapiens; conditions: Homo sapiens, GB-1;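 note: growth of GB-1 cells judged by a viability assay, IC50 marks the concentration inhibiting growth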
# Description: SANGER: Inhibition of human GB-1 cell growth in a cell viability assay.
# [44] = tested on: Mo; type: functional, cell-based; conditions: Homo sapiens
# Description: SANGER: Inhibition of human Mo-T cell growth in a cell viability assay.
# [45] = tested on: WM-115; type: functional, cell-based, Homo sapiens; conditions: Homo sapiens, WM-115
# Description: SANGER: Inhibition of human WM-115 cell growth in a cell viability assay.
# [46] = tested on: SCC-4; type: functional, cell-based, Homo sapiens; conditions: Homo sapiens, SCC-4;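 note: growth inhibition of human SCC-4 cells, read out as cell viability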
# Description: SANGER: Inhibition of human SCC-4 cell growth in a cell viability assay.
# [47] = tested on: NCI-H1304; type: functional, cell-based; conditions: Homo sapiens;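 note: growth inhibition of the cancer cell line, measured in a cell viability assay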
# Description: SANGER: Inhibition of human NCI-H1304 cell growth in a cell viability assay.
# [48] = tested on: SN12C; type: functional, cell-based, Homo sapiens; conditions: Homo sapiens, SN12C;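 note: growth inhibition of human SN12C cells, measured by a cell viability assay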
# Description: SANGER: Inhibition of human SN12C cell growth in a cell viability assay.
# [49] = tested on: KYSE-510; type: functional, cell-based, Homo sapiens; conditions: Homo sapiens, KYSE-510;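 note: cell viability readout used to measure how strongly growth of the cell line is suppressed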
# Description: SANGER: Inhibition of human KYSE-510 cell growth in a cell viability assay.
# [50] = tested on: AN3-CA; type: functional, cell-based; conditions: Homo sapiens;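 note: growth inhibition of human AN3-CA cells measured by a cell viability assay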
# Description: SANGER: Inhibition of human AN3-CA cell growth in a cell viability assay.
# [51] = tested on: HCC2157; type: functional, cell-based; conditions: Homo sapiens;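 note: growth inhibition of the cancer cell line, read out as cell viability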
# Description: SANGER: Inhibition of human HCC2157 cell growth in a cell viability assay.
# [52] = tested on: SK-LMS-1; type: functional, cell-based, Homo sapiens; conditions: Homo sapiens, SK-LMS-1;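 note: growth inhibition of human SK-LMS-1 cells, read out with a cell viability assay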
# Description: SANGER: Inhibition of human SK-LMS-1 cell growth in a cell viability assay.
smiles,measurement,setting,value
CC(=O)O[C@@]12CO[C@@H]1C[C@H](O)[C@@]1(C)C(=O)[C@H](O)C3=C(C)[C@@H](OC(=O)[C@H](O)[C@@H](NC(=O)OC(C)(C)C)c4ccccc4)C[C@@](O)([C@@H](OC(=O)c4ccccc4)[C@H]21)C3(C)C [DOCETAXEL],pIC50,[1],< 8.00
same,pIC50,[2],< 8.00
same,pIC50,[3],< 8.00
same,pIC50,[4],8.28
same,pIC50,[5],8.09
same,pIC50,[6],< 8.00
same,pIC50,[7],< 8.00
same,pIC50,[8],9.25
same,pIC50,[9],8.97
same,pIC50,[10],< 8.00
same,pIC50,[11],< 8.00
same,pIC50,[12],9.16
same,pIC50,[13],8.63
same,pIC50,[14],9.32
same,pIC50,[15],9.24
same,pIC50,[16],< 8.00
same,pIC50,[17],< 8.00
same,pIC50,[18],8.79
same,pIC50,[19],8.70
same,pIC50,[20],8.99
same,pIC50,[21],< 8.00
same,pIC50,[22],8.40
same,pIC50,[23],8.30
same,pIC50,[24],< 8.00
same,pIC50,[25],< 8.00
same,pIC50,[26],8.09
same,pIC50,[27],< 8.00
same,pIC50,[28],8.34
same,pIC50,[29],8.47
same,pIC50,[30],< 8.00
same,pIC50,[31],8.92
same,pIC50,[32],9.41
same,pIC50,[33],8.53
same,pIC50,[34],9.03
same,pIC50,[35],< 8.00
same,pIC50,[36],8.98
same,pIC50,[37],9.30
same,pIC50,[38],8.52
same,pIC50,[39],8.70
same,pIC50,[40],8.52
same,pIC50,[41],8.04
same,pIC50,[42],8.19
same,pIC50,[43],8.29
same,pIC50,[44],< 8.00
same,pIC50,[45],8.20
same,pIC50,[46],9.13
same,pIC50,[47],< 8.00
same,pIC50,[48],8.26
same,pIC50,[49],9.08
same,pIC50,[50],8.30
Cc1ccc(Nc2nccc(N(C)c3ccc4c(C)n(C)nc4c3)n2)cc1S(N)(=O)=O [PAZOPANIB],pIC50,[1],< 5.10
same,pIC50,[2],< 5.10
same,pIC50,[3],< 5.10
same,pIC50,[4],< 5.10
same,pIC50,[5],< 5.10
same,pIC50,[7],< 5.10
same,pIC50,[8],< 5.10
same,pIC50,[51],< 5.10
same,pIC50,[9],< 5.10
same,pIC50,[10],< 5.10
same,pIC50,[11],5.48
same,pIC50,[12],< 5.10
same,pIC50,[13],< 5.10
same,pIC50,[14],5.95
same,pIC50,[15],< 5.10
same,pIC50,[16],< 5.10
same,pIC50,[17],< 5.10
same,pIC50,[18],< 5.10
same,pIC50,[19],< 5.10
same,pIC50,[20],< 5.10
same,pIC50,[21],< 5.10
same,pIC50,[22],< 5.10
same,pIC50,[23],< 5.10
same,pIC50,[24],< 5.10
same,pIC50,[25],< 5.10
same,pIC50,[26],< 5.10
same,pIC50,[27],< 5.10
same,pIC50,[28],< 5.10
same,pIC50,[29],< 5.10
same,pIC50,[30],< 5.10
same,pIC50,[31],5.58
same,pIC50,[32],< 5.10
same,pIC50,[33],< 5.10
same,pIC50,[34],< 5.10
same,pIC50,[35],< 5.10
same,pIC50,[36],< 5.10
same,pIC50,[37],< 5.10
same,pIC50,[38],< 5.10
same,pIC50,[39],< 5.10
same,pIC50,[40],< 5.10
same,pIC50,[41],< 5.10
same,pIC50,[42],< 5.10
same,pIC50,[43],5.24
same,pIC50,[44],< 5.10
same,pIC50,[45],5.24
same,pIC50,[46],< 5.10
same,pIC50,[52],< 5.10
same,pIC50,[47],< 5.10
same,pIC50,[48],< 5.10
same,pIC50,[49],< 5.10
same,pIC50,[50],8.00
Cn1cc(C2=C(c3ccc(Cl)cc3Cl)C(=O)NC2=O)c2ccccc21 [SB-216763],pIC50,[1],< 5.00
same,pIC50,[2],6.68
same,pIC50,[3],< 5.00
same,pIC50,[4],< 5.00
same,pIC50,[5],< 5.00
same,pIC50,[6],< 5.00
same,pIC50,[7],< 5.00
same,pIC50,[9],< 5.00
same,pIC50,[10],< 5.00
same,pIC50,[11],< 5.00
same,pIC50,[12],< 5.00
same,pIC50,[13],< 5.00
same,pIC50,[14],< 5.00
same,pIC50,[15],< 5.00
same,pIC50,[16],< 5.00
same,pIC50,[17],5.04
same,pIC50,[18],< 5.00
same,pIC50,[19],< 5.00
same,pIC50,[20],< 5.00
same,pIC50,[21],< 5.00
same,pIC50,[22],< 5.00
same,pIC50,[23],< 5.00
same,pIC50,[24],< 5.00
same,pIC50,[25],< 5.00
same,pIC50,[26],< 5.00
same,pIC50,[27],< 5.00
same,pIC50,[28],< 5.00
same,pIC50,[29],< 5.00
same,pIC50,[30],< 5.00
same,pIC50,[31],< 5.00
same,pIC50,[32],< 5.00
same,pIC50,[33],< 5.00
same,pIC50,[34],< 5.00
same,pIC50,[35],< 5.00
same,pIC50,[36],< 5.00
same,pIC50,[37],< 5.00
same,pIC50,[38],< 5.00
same,pIC50,[39],< 5.00
same,pIC50,[41],< 5.00
same,pIC50,[42],< 5.00
same,pIC50,[43],< 5.00
same,pIC50,[44],< 5.00
same,pIC50,[45],< 5.00
same,pIC50,[46],< 5.00
same,pIC50,[52],< 5.00
same,pIC50,[47],< 5.00
same,pIC50,[48],< 5.00
same,pIC50,[49],< 5.00
same,pIC50,[50],< 5.00
Cn1cncc1[C@@](N)(c1ccc(Cl)cc1)c1ccc2c(c1)c(-c1cccc(Cl)c1)cc(=O)n2C [TIPIFARNIB],pIC50,[1],< 4.80
same,pIC50,[2],< 4.80
same,pIC50,[3],< 4.80
same,pIC50,[4],5.62
same,pIC50,[5],< 4.80
same,pIC50,[7],5.25
same,pIC50,[8],< 4.80
same,pIC50,[51],6.49
same,pIC50,[9],4.93
same,pIC50,[10],5.17
same,pIC50,[11],4.92
same,pIC50,[12],5.87
same,pIC50,[13],6.15
same,pIC50,[14],5.56
same,pIC50,[15],5.95
same,pIC50,[16],< 4.80
same,pIC50,[17],5.60
same,pIC50,[18],6.02
same,pIC50,[19],< 4.80
same,pIC50,[20],6.15
same,pIC50,[21],< 4.80
same,pIC50,[22],4.95
same,pIC50,[23],5.69
same,pIC50,[24],4.90
same,pIC50,[25],5.55
same,pIC50,[26],5.18
same,pIC50,[27],4.82
same,pIC50,[28],< 4.80
same,pIC50,[29],5.83
same,pIC50,[30],< 4.80
same,pIC50,[31],5.97
same,pIC50,[32],< 4.80
same,pIC50,[33],5.85
same,pIC50,[34],5.96
same,pIC50,[35],5.10
same,pIC50,[36],5.43
same,pIC50,[37],4.99
same,pIC50,[38],5.01
same,pIC50,[39],< 4.80
same,pIC50,[40],5.66
same,pIC50,[41],4.84
same,pIC50,[42],5.84
same,pIC50,[43],5.43
same,pIC50,[44],< 4.80
same,pIC50,[45],< 4.80
same,pIC50,[46],5.88
same,pIC50,[52],6.73
same,pIC50,[47],< 4.80
same,pIC50,[48],4.88
same,pIC50,[49],6.01
same,pIC50,[50],6.00
